Results taken from patent publication US20250026766A1, “Thiazolopyridyl Amide Derivatives as DNA Polymerase Theta Inhibitors” (BeiGene, Ltd., priority 2022, published 2025).

Each molecule was assayed against Pol Theta (1-894) (Homo sapiens (Human), UniProt O75417) (assay: Biochemical Pol Theta (1-894) ATPase IC50 assay (ADP-Glo, ssDNA substrate)). Conditions: ADP-Glo assay with ssDNA substrate, room temperature.
Protocol: Baculovirus Expression of Human POL theta (1-894)
Human POL Theta (1-894)-His-pFastBac1 baculovirus samples were generated using the Bac-to-Bac baculovirus expression system (Invitrogen) according to the manufacturer's protocol. […] Baculovirus amplification was achieved using infected SF9 cells at 1:2000 virus/cells ratios, and grown for 96 hours at 27° C. post-transfection. The expression scaled up for each protein was carried out in the flask 3 L from CORNING. 4 L of 3×10^6 cells/mL Sf9 cells (Expression System, Invitrogen) grown in SF900TM II SFM insect medium (Expression System) were infected with virus stock at 1:200 virus/cell ratios, and grown for 48 hours at 27° C. post-transfection. The infected cell culture was harvested by centrifugation at 6000 rpm for 15 min 4° C. in a SORVALL LYNX6000 centrifuge. The cell pellets were stored at −80° C.
The human POL Theta (1-894)-His produced as described above, were purified from Sf9 baculovirus-infected insect cell paste. The cells were lysed using sonication method, and the lysates were clarified by centrifugation.
Enzymatic reactions of Pol Theta (1-894) were performed using ADP-Glo assay with ssDNA substrate. Pol Theta (1-894) was expressed in baculovirus expression system. The inhibition activities testing for the compound disclosed herein were carried out at room temperature in assay buffer containing 40 mM Tris pH 7.5, 20 mM MgCl2, 1 mM DTT, 0.01% BSA and 0.05% Tween-20. Compounds in DMSO were dispensed into wells of a black 384 well plate (Corning 4514) using D300e digital dispenser (Tecan). The ranges of compounds final concentration were 2.62 nM˜10000 nM. 3 μL 2× enzyme solution containing 12.5 nM enzyme was added to wells. […] After 1 hour reaction, 5 μL ADP-Glo reagent (Promga V9102) was added and incubated for 40 minutes. 10 μL Kinase Detection reagent was added and incubated for 40 minutes. Luminescence was measured on a microplate reader (PHERAstar FSX, BMG labtech). The IC50 values were calculated based on inhibition of enzyme activity in the presence of increasing concentrations of compounds.

Chain of Pol Theta (1-894) (O75417 1-894): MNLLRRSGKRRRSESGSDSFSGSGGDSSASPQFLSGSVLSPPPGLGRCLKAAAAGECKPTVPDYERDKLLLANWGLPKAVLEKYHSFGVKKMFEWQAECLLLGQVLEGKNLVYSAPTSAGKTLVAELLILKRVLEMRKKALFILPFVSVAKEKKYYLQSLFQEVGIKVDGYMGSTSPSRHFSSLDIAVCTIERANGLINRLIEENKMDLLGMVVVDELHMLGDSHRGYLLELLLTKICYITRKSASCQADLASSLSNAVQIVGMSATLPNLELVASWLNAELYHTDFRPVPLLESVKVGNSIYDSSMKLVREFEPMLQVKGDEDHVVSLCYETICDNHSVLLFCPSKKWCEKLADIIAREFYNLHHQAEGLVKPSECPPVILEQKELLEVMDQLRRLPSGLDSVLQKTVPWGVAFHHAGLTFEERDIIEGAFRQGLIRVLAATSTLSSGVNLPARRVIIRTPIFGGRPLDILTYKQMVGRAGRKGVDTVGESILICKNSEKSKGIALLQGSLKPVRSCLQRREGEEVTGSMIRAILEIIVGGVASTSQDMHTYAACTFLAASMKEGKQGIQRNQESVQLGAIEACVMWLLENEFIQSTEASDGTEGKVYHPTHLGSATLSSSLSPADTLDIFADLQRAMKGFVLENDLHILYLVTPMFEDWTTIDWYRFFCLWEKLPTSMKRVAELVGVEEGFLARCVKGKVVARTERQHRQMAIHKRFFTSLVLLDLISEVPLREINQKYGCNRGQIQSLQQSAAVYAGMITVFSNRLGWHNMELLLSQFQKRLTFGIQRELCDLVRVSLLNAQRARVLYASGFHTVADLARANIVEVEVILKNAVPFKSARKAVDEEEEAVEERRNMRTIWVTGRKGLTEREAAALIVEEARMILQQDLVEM

Row | SMILES | IC50 [nM]
1 | COc1ccccc1-c1cnncc1C(=O)Nc1nc2ccc(-c3ccc(NC(C)=O)cc3)nc2s1 [Example 16, N-(5-(4-acetamidophenyl)thiazolo[5,4-b]pyridin-2-yl)-5-(2-methoxyphenyl)pyridazine-4-carboxamide] | 8.2
2 | COc1ccc(C#N)cc1-c1cc(C)ncc1C(=O)Nc1nc2ccc(-c3ccc(C(N)=O)c(C)c3)nc2s1 [Example 110, N-(5-(4-carbamoyl-3-methylphenyl)thiazolo[5,4-b]pyridin-2-yl)-4-(5-cyano-2-methoxyphenyl)-6-methylnicotinamide] | 5.8
3 | COc1ccc(C#N)cc1-c1cc(C)ncc1C(=O)Nc1nc2ccc(-c3ccc(C#N)cc3C)nc2s1 [Example 169, 4-(5-cyano-2-methoxyphenyl)-N-(5-(4-cyano-2-methylphenyl)thiazolo[5,4-b]pyridin-2-yl)-6-methylnicotinamide] | 7.5
4 | COc1cccc(C#N)c1-c1cc(C)ncc1C(=O)Nc1nc2ccc(-c3ccc(C#N)cc3)nc2s1 [Example 153, 4-(2-cyano-6-methoxyphenyl)-N-(5-(4-cyanophenyl)thiazolo[5,4-b]pyridin-2-yl)-6-methylnicotinamide] | 57
5 | COc1ccc(C#N)cc1-c1cc(C)ncc1C(=O)Nc1nc2ccc(-c3ccc(C(=O)N4CCCC4)cc3)nc2s1 [Example 85, 4-(5-cyano-2-methoxyphenyl)-6-methyl-N-(5-(4-(pyrrolidine-1-carbonyl)phenyl)thiazolo[5,4-b]pyridin-2-yl)nicotinamide] | 62
6 | COc1ccc(C#N)cc1-c1cc(C)ncc1C(=O)Nc1nc2ccc(-c3ccc(N4CCOC4=O)cc3)nc2s1 [Example 43, 4-(5-cyano-2-methoxyphenyl)-6-methyl-N-(5-(4-(2-oxooxazolidin-3-yl)phenyl)thiazolo[5,4-b]pyridin-2-yl)nicotinamide] | 75
7 | COc1ccccc1-c1cnncc1C(=O)Nc1nc2ccc(C(=O)N3CCOCC3)nc2s1 [Example 124, 5-(2-methoxyphenyl)-N-(5-(morpholine-4-carbonyl)thiazolo[5,4-b]pyridin-2-yl)pyridazine-4-carboxamide] | 44
8 | COc1ccccc1-c1cnncc1C(=O)Nc1nc2ccc(CCc3ccc(Cl)cc3)nc2s1 [Example 62, N-(5-(4-chlorophenethyl)thiazolo[5,4-b]pyridin-2-yl)-5-(2-methoxyphenyl)pyridazine-4-carboxamide] | 24
9 | COc1ccc(C#N)cc1-c1cc(C)ncc1C(=O)Nc1nc2ccc(OCCN3CCOCC3)nc2s1 [Example 65, 4-(5-cyano-2-methoxyphenyl)-6-methyl-N-(5-(2-morpholinoethoxy)thiazolo[5,4-b]pyridin-2-yl)nicotinamide] | 224
10 | COc1ccc(C#N)cc1-c1cc(C)ncc1C(=O)Nc1nc2ccc(-c3ccc(N(CCO)S(C)(=O)=O)cc3)nc2s1 [Example 136, 4-(5-cyano-2-methoxyphenyl)-N-(5-(4-(N-(2-hydroxyethyl)methylsulfonamido)phenyl)thiazolo[5,4-b]pyridin-2-yl)-6-methylnicotinamide] | 41
11 | COc1ccc(C#N)cc1-c1cc(C)ncc1C(=O)Nc1nc2ccc(-c3ccc(C(=O)NC(C)C)cc3)nc2s1 [Example 74, 4-(5-cyano-2-methoxyphenyl)-N-(5-(4-(isopropylcarbamoyl)phenyl)thiazolo[5,4-b]pyridin-2-yl)-6-methylnicotinamide] | 73
12 | COc1ccc(C#N)cc1-c1cc(C)ncc1C(=O)Nc1nc2ccc(-c3ccc(C(=O)N4CCOCC4)cc3)nc2s1 [Example 84, 4-(5-cyano-2-methoxyphenyl)-6-methyl-N-(5-(4-(morpholine-4-carbonyl)phenyl)thiazolo[5,4-b]pyridin-2-yl)nicotinamide] | 49
13 | COc1ccccc1-c1cnncc1C(=O)Nc1nc2ccc(-c3ccn[nH]3)nc2s1 [Example 47, N-(5-(1H-pyrazol-5-yl)thiazolo[5,4-b]pyridin-2-yl)-5-(2-methoxyphenyl)pyridazine-4-carboxamide] | 99
14 | COc1ccccc1-c1cnncc1C(=O)Nc1nc2ccc(Oc3ccc(S(C)(=O)=O)cc3)nc2s1 [Example 160, 5-(2-methoxyphenyl)-N-(5-(4-(methylsulfonyl)phenoxy)thiazolo[5,4-b]pyridin-2-yl)pyridazine-4-carboxamide] | 63
15 | Cc1cc(-c2ccc(=O)n(C)c2C)c(C(=O)Nc2nc3ccc(-c4ccc(C#N)cc4)nc3s2)cn1 [Example 120, N-(5-(4-cyanophenyl)thiazolo[5,4-b]pyridin-2-yl)-1,2,6′-trimethyl-6-oxo-1,6-dihydro-[3,4′-bipyridine]-3′-carboxamide] | 7.9
16 | COc1ccc(C#N)cc1-c1cc(C)ncc1C(=O)Nc1nc2ccc(-c3ccc(NC(=O)C(C)C)cc3)nc2s1 [Example 50, 4-(5-cyano-2-methoxyphenyl)-N-(5-(4-isobutyramidophenyl)thiazolo[5,4-b]pyridin-2-yl)-6-methylnicotinamide] | 218
17 | COc1cccc(F)c1-c1cnccc1C(=O)Nc1nc2ccc(-c3ccc(NC(C)=O)cc3)nc2s1 [Example 31, N-(5-(4-acetamidophenyl)thiazolo[5,4-b]pyridin-2-yl)-3-(2-fluoro-6-methoxyphenyl)isonicotinamide] | 70
18 | COc1cc(Cl)ccc1-c1ccc2nc(NC(=O)c3cnncc3-c3ccccc3OC)sc2n1 [Example 96, N-(5-(4-chloro-2-methoxyphenyl)thiazolo[5,4-b]pyridin-2-yl)-5-(2-methoxyphenyl)pyridazine-4-carboxamide] | 60
19 | CCS(=O)(=O)Nc1ccc(-c2ccc3nc(NC(=O)c4cnc(C)cc4-c4cc(C#N)ccc4OC)sc3n2)cc1 [Example 35, 4-(5-cyano-2-methoxyphenyl)-N-(5-(4-(ethylsulfonamido)phenyl)thiazolo[5,4-b]pyridin-2-yl)-6-methylnicotinamide] | 94
20 | COc1ccc(C#N)cc1-c1cc(C)ncc1C(=O)Nc1nc2ccc(-c3ccc(CC#N)cc3)nc2s1 [Example 116, 4-(5-cyano-2-methoxyphenyl)-N-(5-(4-(cyanomethyl)phenyl)thiazolo[5,4-b]pyridin-2-yl)-6-methylnicotinamide] | 5.6
21 | COc1ccc(C#N)cc1-c1cc(C)ncc1C(=O)Nc1nc2ccc(-c3ccc(NC(=O)C(C)C)c(C)c3)nc2s1 [Example 51, 4-(5-cyano-2-methoxyphenyl)-N-(5-(4-isobutyramido-3-methylphenyl)thiazolo[5,4-b]pyridin-2-yl)-6-methylnicotinamide] | 15
22 | COc1ccc(C#N)cc1-c1cc(C#N)ncc1C(=O)Nc1nc2ccc(-c3ccc(NC(C)=O)cc3)nc2s1 [Example 36, N-(5-(4-acetamidophenyl)thiazolo[5,4-b]pyridin-2-yl)-6-cyano-4-(5-cyano-2-methoxyphenyl)nicotinamide] | 73
23 | COc1ccc(C#N)cc1-c1cc(C)ncc1C(=O)Nc1nc2ccc(-c3ccc(CNC(C)=O)cc3)nc2s1 [Example 115, N-(5-(4-(acetamidomethyl)phenyl)thiazolo[5,4-b]pyridin-2-yl)-4-(5-cyano-2-methoxyphenyl)-6-methylnicotinamide] | 7.1
24 | COc1ccccc1-c1cnncc1C(=O)Nc1nc2ccc(-c3ccc(N4CCCC4=O)cc3)nc2s1 [Example 93, 5-(2-methoxyphenyl)-N-(5-(4-(2-oxopyrrolidin-1-yl)phenyl)thiazolo[5,4-b]pyridin-2-yl)pyridazine-4-carboxamide] | 20
25 | COc1ccc(C#N)cc1-c1cc(C)ncc1C(=O)Nc1nc2ccc(-c3ccc(OCCO)cc3)nc2s1 [Example 122, 4-(5-cyano-2-methoxyphenyl)-N-(5-(4-(2-hydroxyethoxy)phenyl)thiazolo[5,4-b]pyridin-2-yl)-6-methylnicotinamide] | 14
26 | COc1ccc(C#N)cc1-c1cnccc1C(=O)Nc1nc2ccc(-c3ccc(NC(C)=O)cc3)nc2s1 [Example 22, N-(5-(4-acetamidophenyl)thiazolo[5,4-b]pyridin-2-yl)-3-(5-cyano-2-methoxyphenyl)isonicotinamide] | 33
27 | COc1ccc(OC)c(-c2cc(C)ncc2C(=O)Nc2nc3ccc(-c4ccc(C#N)cc4)nc3s2)c1 [Example 49, N-(5-(4-cyanophenyl)thiazolo[5,4-b]pyridin-2-yl)-4-(2,5-dimethoxyphenyl)-6-methylnicotinamide] | 150
28 | N#Cc1ccc(C(=O)Nc2nc3ccc(-c4ccc(Cl)cc4)nc3s2)c(N2CCOCC2)n1 [Example 1, N-(5-(4-chlorophenyl)thiazolo[5,4-b]pyridin-2-yl)-6-cyano-2-morpholinonicotinamide] | 347
29 | COc1ccc(C#N)cc1-c1cc(C)ncc1C(=O)Nc1nc2ccc(-c3ccc(N4CCOCC4)cc3)nc2s1 [Example 59, 4-(5-cyano-2-methoxyphenyl)-6-methyl-N-(5-(4-morpholinophenyl)thiazolo[5,4-b]pyridin-2-yl)nicotinamide] | 98
